Measured values reported in patent US10160747B2, “Compounds and methods for kinase modulation, and indications therefor” (Plexxikon Inc., priority 2016, dated 2018).

Assays:
FLT3-D835Y = target: T1, FLT3-D835Y (Homo sapiens, UniProt P36888, D835Y); experiment: FLT3-D835Y recombinant enzyme kinase assay (AlphaScreen); format: biochemical; conditions: 8 pt, GMean
T1 construct: purchased Invitrogen PV3967
T1 sequence (P36888 27-993 D835Y): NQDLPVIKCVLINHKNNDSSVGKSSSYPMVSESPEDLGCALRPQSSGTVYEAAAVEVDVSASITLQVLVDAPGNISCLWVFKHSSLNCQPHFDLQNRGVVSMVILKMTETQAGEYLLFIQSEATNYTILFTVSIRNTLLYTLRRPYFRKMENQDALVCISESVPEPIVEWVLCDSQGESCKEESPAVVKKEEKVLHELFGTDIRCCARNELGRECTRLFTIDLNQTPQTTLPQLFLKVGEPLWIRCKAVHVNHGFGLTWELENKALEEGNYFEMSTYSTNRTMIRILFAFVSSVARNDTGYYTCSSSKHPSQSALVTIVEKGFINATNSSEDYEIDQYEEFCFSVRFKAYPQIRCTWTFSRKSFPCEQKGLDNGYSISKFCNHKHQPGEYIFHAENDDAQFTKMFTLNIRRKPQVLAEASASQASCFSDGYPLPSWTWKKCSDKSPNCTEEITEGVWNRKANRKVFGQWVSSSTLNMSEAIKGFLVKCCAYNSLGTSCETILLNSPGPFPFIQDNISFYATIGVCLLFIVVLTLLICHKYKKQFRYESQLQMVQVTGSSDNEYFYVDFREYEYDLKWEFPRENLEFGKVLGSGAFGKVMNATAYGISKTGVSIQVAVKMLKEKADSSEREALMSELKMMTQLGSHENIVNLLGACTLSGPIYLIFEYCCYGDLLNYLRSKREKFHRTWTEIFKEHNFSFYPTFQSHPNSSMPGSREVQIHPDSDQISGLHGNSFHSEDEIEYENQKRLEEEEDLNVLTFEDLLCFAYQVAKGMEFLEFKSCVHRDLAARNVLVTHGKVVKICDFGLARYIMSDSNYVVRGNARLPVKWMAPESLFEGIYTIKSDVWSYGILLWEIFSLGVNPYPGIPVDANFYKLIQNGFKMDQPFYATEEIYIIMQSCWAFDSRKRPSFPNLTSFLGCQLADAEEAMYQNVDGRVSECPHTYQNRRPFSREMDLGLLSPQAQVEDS
Method in brief: (§1)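 Enzyme plus biotinylated poly(Glu4-Tyr) substrate (30 nM) mixed with compound, then ATP added. Donor beads went in for 20 min at room temperature, then PY20 acceptor beads for 60 min. AlphaScreen read; ATP was 10 μM for FLT3-ITD/D835Y and 100 μM for c-KIT.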

FLT3-ITD = target: T2, FLT3-ITD (Homo sapiens, UniProt P36888); experiment: FLT3-ITD recombinant enzyme kinase assay (AlphaScreen); format: biochemical; conditions: 8 pt; read-out: FLT3_ITD 8 pt: IC50
T2 sequence (P36888 1-993): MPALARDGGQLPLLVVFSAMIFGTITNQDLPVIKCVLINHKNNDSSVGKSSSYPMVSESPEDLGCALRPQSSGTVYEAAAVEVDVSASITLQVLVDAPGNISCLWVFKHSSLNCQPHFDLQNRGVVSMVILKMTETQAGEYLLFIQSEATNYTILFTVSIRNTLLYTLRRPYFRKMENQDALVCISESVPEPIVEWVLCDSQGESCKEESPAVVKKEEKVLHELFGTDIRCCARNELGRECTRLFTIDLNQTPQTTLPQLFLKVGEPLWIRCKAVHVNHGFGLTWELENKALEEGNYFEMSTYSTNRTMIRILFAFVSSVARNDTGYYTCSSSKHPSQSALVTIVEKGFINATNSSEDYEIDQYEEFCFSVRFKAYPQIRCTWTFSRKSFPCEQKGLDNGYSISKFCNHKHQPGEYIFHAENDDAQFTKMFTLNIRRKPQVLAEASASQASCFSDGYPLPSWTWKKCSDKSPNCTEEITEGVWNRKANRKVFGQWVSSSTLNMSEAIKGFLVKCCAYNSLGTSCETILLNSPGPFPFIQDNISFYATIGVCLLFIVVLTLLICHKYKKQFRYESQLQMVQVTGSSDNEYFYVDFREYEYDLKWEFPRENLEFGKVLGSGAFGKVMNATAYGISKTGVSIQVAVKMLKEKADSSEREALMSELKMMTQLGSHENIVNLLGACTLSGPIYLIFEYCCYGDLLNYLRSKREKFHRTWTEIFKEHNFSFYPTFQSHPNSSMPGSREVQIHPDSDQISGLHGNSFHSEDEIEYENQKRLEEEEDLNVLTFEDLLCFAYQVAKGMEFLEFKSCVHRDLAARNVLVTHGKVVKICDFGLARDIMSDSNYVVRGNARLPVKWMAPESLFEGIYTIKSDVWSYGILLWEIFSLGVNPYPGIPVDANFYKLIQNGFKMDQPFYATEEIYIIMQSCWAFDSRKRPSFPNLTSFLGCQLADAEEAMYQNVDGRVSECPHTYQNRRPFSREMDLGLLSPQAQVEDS
Method in brief: as §1

Row | IC50 (FLT3-D835Y) | IC50 (FLT3-ITD) | Structure (SMILES)
1 | 0.0001 to 10 µM | 0.0001 to 10 µM | COc1ncc(NC(=O)Cc2ccc(-c3cnc(Nc4cn[nH]c4)nc3)cc2)cc1C(F)(F)F [Compound P-0025, N-[6-methoxy-5-(trifluoromethyl)-3-pyridyl]-2-[4-[2-(1H-pyrazol-4-ylamino)pyrimidin-5-yl]phenyl]acetamide]
2 | 0.0001 to 10 µM | 0.0001 to 10 µM | Cc1ncc(NC(=O)Cc2ccc(-c3cnc4[nH]c(Cl)cc4c3)cc2F)cc1C(F)(F)F [Compound P-0067, 2-[4-(2-chloro-1H-pyrrolo[2,3-b]pyridin-5-yl)-2-fluoro-phenyl]-N-[6-methyl-5-(trifluoromethyl)-3-pyridyl]acetamide]
3 | 0.0001 to 10 µM | 0.0001 to 10 µM | Cn1cc(Nc2ncc(-c3ccc(CC(=O)Nc4ccnc(C(F)(F)F)c4)c(F)c3)cn2)cn1 [Compound P-0083, 2-[2-fluoro-4-[2-[(1-methylpyrazol-4-yl)amino]pyrimidin-5-yl]phenyl]-N-[2-(trifluoromethyl)-4-pyridyl]acetamide]
4 | 0.0001 to 10 µM | 0.0001 to 10 µM | O=C(Cc1ccc(-c2cnc3[nH]cc(C(=O)C4CC4)c3c2)cc1F)Nc1ccnc(C(F)(F)F)c1 [Compound P-0032, 2-[4-[3-(cyclopropanecarbonyl)-1H-pyrrolo[2,3-b]pyridin-5-yl]-2-fluoro-phenyl]-N-[2-(trifluoromethyl)-4-pyridyl]acetamide]
5 | 0.0001 to 10 µM | 0.0001 to 10 µM | O=C(Cc1ccc(-c2cnc(Nc3cnn4ccccc34)nc2)cc1F)Nc1cncc(C(F)(F)F)c1 [Compound P-0058, 2-[2-fluoro-4-[2-(pyrazolo[1,5-a]pyridin-3-ylamino)pyrimidin-5-yl]phenyl]-N-[5-(trifluoromethyl)-3-pyridyl]acetamide]
6 | 0.0001 to 10 µM | 0.0001 to 10 µM | O=C(Cc1ccc(-c2cnc3[nH]cc(Cl)c3n2)cc1F)Nc1cnc(Cl)c(C(F)(F)F)c1 [Compound P-0060, 2-[4-(7-chloro-5H-pyrrolo[2,3-b]pyrazin-2-yl)-2-fluoro-phenyl]-N-[6-chloro-5-(trifluoromethyl)-3-pyridyl]acetamide]
7 | 0.0001 to 10 µM | 0.0001 to 10 µM | O=C(Cc1ccc(-c2cnc3[nH]cc(F)c3c2)cc1F)Nc1ccnc(C(F)(F)F)c1 [Compound P-0029, 2-[2-fluoro-4-(3-fluoro-1H-pyrrolo[2,3-b]pyridin-5-yl)phenyl]-N-[2-(trifluoromethyl)-4-pyridyl]acetamide]
8 | 0.0001 to 10 µM | 0.0001 to 10 µM | COc1ncc(NC(=O)Cc2ccc(-c3cnc(Nc4cnn(C)c4)nc3)cc2F)cc1C(F)(F)F [Compound P-0089, 2-[2-fluoro-4-[2-[(1-methylpyrazol-4-yl)amino]pyrimidin-5-yl]phenyl]-N-[6-methoxy-5-(trifluoromethyl)-3-pyridyl]acetamide]
9 | 0.0001 to 10 µM | 0.0001 to 10 µM | CC(C)(C)c1ccc(NC(=O)Cc2ccc(-c3cnc4[nH]cc(F)c4c3)cc2F)cn1 [Compound P-0043, N-(6-tert-butyl-3-pyridyl)-2-[2-fluoro-4-(3-fluoro-1H-pyrrolo[2,3-b]pyridin-5-yl)phenyl]acetamide]
10 | 0.0001 to 10 µM | 0.0001 to 10 µM | Cc1ncc(NC(=O)Cc2ccc(-c3cnc(Nc4cnn(C)c4C)nc3)cc2F)cc1C(F)(F)F [Compound P-0076, 2-[4-[2-[(1,5-dimethylpyrazol-4-yl)amino]pyrimidin-5-yl]-2-fluoro-phenyl]-N-[6-methyl-5-(trifluoromethyl)-3-pyridyl]acetamide]
11 | 0.0001 to 10 µM | 0.0001 to 10 µM | CC(=O)c1c[nH]c2ncc(-c3ccc(CC(=O)Nc4ccnc(C(F)(F)F)c4)c(F)c3)cc12 [Compound P-0031, 2-(4-(3-acetyl-1H-pyrrolo[2,3-b]pyridin-5-yl)-2-fluorophenyl)-N-(2-(trifluoromethyl)pyridin-4-yl)acetamide]
12 | 0.0001 to 10 µM | 0.0001 to 10 µM | Cn1cc(Nc2ncc(-c3ccc(CC(=O)Nc4cncc(C5CC5)c4)c(F)c3)cn2)cn1 [Compound P-0081, N-(5-cyclopropyl-3-pyridyl)-2-[2-fluoro-4-[2-[(1-methylpyrazol-4-yl)amino]pyrimidin-5-yl]phenyl]acetamide]
13 | 0.0001 to 10 µM | 0.0001 to 10 µM | Cc1ncc(NC(=O)Cc2ccc(-c3cnc4c(c3)C3(CC3)C(=O)N4)cc2F)cc1C(F)(F)F [Compound P-0057, 2-[2-fluoro-4-(2-oxospiro[1H-pyrrolo[2,3-b]pyridine-3,1′-cyclopropane]-5-yl)phenyl]-N-[6-methyl-5-(trifluoromethyl)-3-pyridyl]acetamide]
14 | 0.0001 to 10 µM | 0.0001 to 10 µM | COc1ncc(NC(=O)Cc2ccc(-c3cnc(Nc4cn[nH]c4)nc3)cc2F)cc1C(F)(F)F [Compound P-0026, 2-[2-fluoro-4-[2-(1H-pyrazol-4-ylamino)pyrimidin-5-yl]phenyl]-N-[6-methoxy-5-(trifluoromethyl)-3-pyridyl]acetamide]
15 | 0.0001 to 10 µM | 0.0001 to 10 µM | O=C(Cc1ccc(-c2cnc3[nH]cc(Cl)c3n2)cc1F)Nc1cncc(C(F)(F)F)c1 [Compound P-0061, 2-[4-(7-chloro-5H-pyrrolo[2,3-b]pyrazin-2-yl)-2-fluoro-phenyl]-N-[5-(trifluoromethyl)-3-pyridyl]acetamide]
16 | 0.0001 to 10 µM | 0.0001 to 10 µM | CC(=O)c1c[nH]c2ncc(-c3ccc(CC(=O)Nc4cncc(C(F)(F)F)c4)c(F)c3)cc12 [Compound P-0055, 2-[4-(3-acetyl-1H-pyrrolo[2,3-b]pyridin-5-yl)-2-fluoro-phenyl]-N-[5-(trifluoromethyl)-3-pyridyl]acetamide]
17 | 0.0001 to 10 µM | 0.0001 to 10 µM | Cc1ncc(NC(=O)Cc2ccc(-c3cnc(Nc4cnn5ccccc45)nc3)cc2F)cc1C(F)(F)F [Compound P-0065, 2-(2-fluoro-4-(2-(pyrazolo[1,5-a]pyridin-3-ylamino)pyrimidin-5-yl)phenyl)-N-(6-methyl-5-(trifluoromethyl)pyridin-3-yl)acetamide]
18 | 0.0001 to 10 µM | 0.0001 to 10 µM | CC(=O)c1c[nH]c2ncc(-c3ccc(CC(=O)Nc4cnc(C)c(C(F)(F)F)c4)c(F)c3)cc12 [Compound P-0063, 2-[4-(3-acetyl-1H-pyrrolo[2,3-b]pyridin-5-yl)-2-fluoro-phenyl]-N-[6-methyl-5-(trifluoromethyl)-3-pyridyl]acetamide]
19 | 0.0001 to 10 µM | 0.0001 to 10 µM | Cc1ncc(NC(=O)Cc2ccc(-c3cnc(Nc4cn[nH]c4)nc3)cc2F)cc1C(F)(F)F [Compound P-0027, 2-[2-fluoro-4-[2-(1H-pyrazol-4-ylamino)pyrimidin-5-yl]phenyl]-N-[6-methyl-5-(trifluoromethyl)-3-pyridyl]acetamide]
20 | 0.0001 to 10 µM | – | COc1ncc(NC(=O)Cc2ccc(-c3cnc4[nH]cc(F)c4c3)c(F)c2)cc1C(F)(F)F [Compound P-0048, 2-[3-fluoro-4-(3-fluoro-1H-pyrrolo[2,3-b]pyridin-5-yl)phenyl]-N-[6-methoxy-5-(trifluoromethyl)-3-pyridyl]acetamide]
